The target in assay [1] is T1, AHR (Mus musculus, UniProt P30561).
T1 sequence (P30561 1-848 P471L/N533S/M589L): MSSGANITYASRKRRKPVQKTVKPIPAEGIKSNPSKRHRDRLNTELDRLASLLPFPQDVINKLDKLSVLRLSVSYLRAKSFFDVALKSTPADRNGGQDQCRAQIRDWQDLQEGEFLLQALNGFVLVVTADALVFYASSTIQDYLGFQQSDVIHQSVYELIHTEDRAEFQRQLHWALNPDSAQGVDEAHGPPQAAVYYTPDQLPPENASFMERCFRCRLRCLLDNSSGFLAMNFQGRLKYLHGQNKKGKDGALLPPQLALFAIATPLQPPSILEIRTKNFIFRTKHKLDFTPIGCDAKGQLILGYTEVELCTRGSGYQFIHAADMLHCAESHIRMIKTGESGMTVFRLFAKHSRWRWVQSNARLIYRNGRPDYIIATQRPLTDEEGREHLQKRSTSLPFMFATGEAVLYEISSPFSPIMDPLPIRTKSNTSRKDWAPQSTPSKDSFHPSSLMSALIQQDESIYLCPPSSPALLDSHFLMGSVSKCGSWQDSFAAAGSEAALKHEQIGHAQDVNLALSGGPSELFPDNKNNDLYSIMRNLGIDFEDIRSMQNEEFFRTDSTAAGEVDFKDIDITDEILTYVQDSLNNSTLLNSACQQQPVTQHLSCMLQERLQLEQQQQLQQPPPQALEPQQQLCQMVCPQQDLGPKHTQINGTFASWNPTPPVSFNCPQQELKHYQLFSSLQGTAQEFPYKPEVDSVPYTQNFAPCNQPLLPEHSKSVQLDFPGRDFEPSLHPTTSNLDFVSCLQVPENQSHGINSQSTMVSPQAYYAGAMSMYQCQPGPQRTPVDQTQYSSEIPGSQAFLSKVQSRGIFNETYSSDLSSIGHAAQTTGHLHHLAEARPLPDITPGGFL
The assay can be described thus: In vitro assay 3: antagonism in mouse cell line (AHR transactivation, firefly luciferase reporter, kynurenic acid prestimulated). Format: cell-based. The following applies: 200 μM kynurenic acid, 20 hours, read-out: AHR Antagonism Mouse IC50. In a few lines: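 Mouse cells stably carrying a DRE-driven, AHR-inducible firefly luciferase reporter were prestimulated with the endogenous agonist kynurenic acid before compound addition. Luciferase activity was measured by luminescence and normalized to positive and negative controls, with cells lacking kynurenic acid serving as full-inhibition control. Repeat tests are reported as mean or median.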
On the technique in general: Reporter assays use an easily measured gene product as a stand-in for the process of interest.

Assay [2] addresses T2, AHR (Homo sapiens, UniProt P35869).
T2 construct: U87 MG glioblastoma cells (ATCC #HTB-14) endogenously expressing AHR; endogenous in cells; host or cells: U87 MG glioblastoma cells (ATCC #HTB-14)
T2 sequence (P35869 11-848): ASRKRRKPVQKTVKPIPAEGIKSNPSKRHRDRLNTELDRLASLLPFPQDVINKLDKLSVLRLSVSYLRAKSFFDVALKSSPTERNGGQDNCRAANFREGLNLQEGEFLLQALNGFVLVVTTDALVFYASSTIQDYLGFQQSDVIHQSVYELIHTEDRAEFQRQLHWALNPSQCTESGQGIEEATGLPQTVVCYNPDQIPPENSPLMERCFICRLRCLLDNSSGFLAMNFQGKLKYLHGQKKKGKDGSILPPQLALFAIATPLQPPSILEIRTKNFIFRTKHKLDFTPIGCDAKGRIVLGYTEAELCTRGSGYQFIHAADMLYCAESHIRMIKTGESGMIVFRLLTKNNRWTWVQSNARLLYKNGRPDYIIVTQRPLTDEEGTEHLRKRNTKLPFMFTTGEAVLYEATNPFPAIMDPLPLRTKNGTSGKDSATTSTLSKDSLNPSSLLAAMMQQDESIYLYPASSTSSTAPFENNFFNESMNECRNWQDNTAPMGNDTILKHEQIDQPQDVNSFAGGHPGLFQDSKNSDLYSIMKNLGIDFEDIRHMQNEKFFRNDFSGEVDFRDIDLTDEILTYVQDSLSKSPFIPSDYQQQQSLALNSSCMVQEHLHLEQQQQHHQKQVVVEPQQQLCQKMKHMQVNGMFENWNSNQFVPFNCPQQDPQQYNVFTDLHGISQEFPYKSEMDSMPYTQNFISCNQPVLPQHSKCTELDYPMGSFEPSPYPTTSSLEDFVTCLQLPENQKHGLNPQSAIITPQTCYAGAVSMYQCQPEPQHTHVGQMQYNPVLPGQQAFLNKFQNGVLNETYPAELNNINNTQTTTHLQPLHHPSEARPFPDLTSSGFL
Kind of assay: In vitro assay 1: antagonism in human cell line (AHR transactivation, firefly luciferase reporter, kynurenic acid prestimulated). Format: cell-based. The following applies: AHR Antagonism Human IC50 [M]. In a few lines:
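U87 MG + DRE-firefly/constitutive-Renilla stable reporters; kynurenic acid prestim; dual-luc read; Renilla = tox; normalized vs pos/neg controls (pos: 150 μM KYNA + 5 μM staurosporine).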

Where [3] appears, read: Hepa 1c1c7 cells, firefly luciferase reporter.

Like-named read-outs stand apart in the source and are kept apart here.

What is called IC50 is the midpoint of a concentration-inhibition curve. On to `O=C1NCCCC[C@H]1Nc1nc2ccccc2c2nc(-c3cccc(C(F)(F)F)c3)nn12` [Example 54, (3R)-3-({2-[3-(trifluoromethyl)phenyl][1,2,4]triazolo[1,5-c]quinazolin-5-yl}amino)azepan-2-one], for which the half-inhibitory concentration (IC50) in assay [1] (mouse Hepa 1c1c7 cells) stood at 3.2 nM; in assay [2], 2.08e-08 M.

For `Cc1cccc2c1nc(N[C@@H]1CCCCNC1=O)n1nc(-c3cnn(C)c3)nc21` [Example 142, (3R)-3-{[7-methyl-2-(1-methyl-1H-pyrazol-4-yl)[1,2,4]triazolo[1,5-c]quinazolin-5-yl]amino}azepan-2-one], the figures for the IC50 in assay [1] (mouse Hepa 1c1c7 cells) and in assay [2] were 21.1 nM and 2.15e-09 M, respectively.

For the molecule `Cn1cc(-c2nc3c4c(Br)cccc4nc(N[C@@H]4CCCCNC4=O)n3n2)cn1` [Example 165, (3R)-3-{[10-bromo-2-(1-methyl-1H-pyrazol-4-yl)[1,2,4]triazolo[1,5-c]quinazolin-5-yl]amino}azepan-2-one], the half-maximal inhibitory concentration (IC50) was found to be 98.6 nM in assay [1] (mouse Hepa 1c1c7 cells) and 1.65e-08 M in assay [2].

`C[C@@H](Nc1nc2c(Br)cccc2c2nc(-c3cnn(C)c3)nn12)C(=O)N1CCN(C)CC1` [Example 786, (2R)-2-{[7-bromo-2-(1-methyl-1H-pyrazol-4-yl)[1,2,4]triazolo[1,5-c]quinazolin-5-yl]amino}-1-(4-methylpiperazin-1-yl)propan-1-one]: the half-maximal inhibitory concentration (IC50) was determined as 22.1 nM in assay [1] (setting [3]) and 2.2e-08 M in assay [2] (firefly luciferase reporter).

`CC(C)Oc1ccc(-c2nc3c4ccccc4nc(N[C@@H]4CNCCNC4=O)n3n2)cc1` [Example 415, (6R)-6-[(2-{4-[(propan-2-yl)oxy]phenyl}[1,2,4]triazolo[1,5-c]quinazolin-5-yl)amino]-1,4-diazepan-5-one]: the IC50 in assay [1] (mouse Hepa 1c1c7 cells) was 6.47 nM; in assay [2] it was 1.85e-08 M.

Turning to `O=C1NCCCC[C@H]1Nc1nc2ccccc2c2nc(-c3cnn(C4CC4)c3)nn12` [Example 535, (3R)-3-{[2-(1-cyclopropyl-1H-pyrazol-4-yl)[1,2,4]triazolo[1,5-c]quinazolin-5-yl]amino}azepan-2-one], the IC50 in assay [1] (mouse Hepa 1c1c7 cells) was 2.57 nM; in assay [2], 5.13e-09 M.

Consider `Cn1cc(-c2nc3c4cccc(Cl)c4nc(N[C@@H]4CCCCNC4=O)n3n2)cn1` [Example 194, (3R)-3-{[7-Chloro-2-(1-methyl-1H-pyrazol-4-yl)[1,2,4]triazolo[1,5-c]quinazolin-5-yl]amino}azepan-2-one], for which the values for the IC50 in assay [1] (mouse Hepa 1c1c7 cells) and in assay [2] were 3.83 nM and 1.17e-09 M, respectively.

`O=C1NCCCC[C@H]1Nc1nc2ccccc2c2nc(-c3ccco3)nn12` [Example 130, (3R)-3-{[2-(furan-2-yl)[1,2,4]triazolo[1,5-c]quinazolin-5-yl]amino}azepan-2-one]: the 50% inhibitory concentration (IC50) in assay [1] (mouse Hepa 1c1c7 cells) is 5.82 nM; in assay [2] it was 4.55e-09 M.

Regarding `CCCCNC(=O)[C@@H](C)Nc1nc2c(Br)cccc2c2nc(-c3cnn(C)c3)nn12` [Example 794, N^2-[7-bromo-2-(1-methyl-1H-pyrazol-4-yl)[1,2,4]triazolo[1,5-c]quinazolin-5-yl]-N-butyl-D-alaninamide], the IC50 in assay [1] (setting [3]) stood at 21.2 nM; in assay [2] (firefly luciferase reporter), 1.76e-08 M.

For the molecule `O=C1NCCCC[C@H]1Nc1nc2ccccc2c2nc(-c3ccsc3)nn12` [Example 340, (3R)-3-{[2-(thiophen-3-yl)[1,2,4]triazolo[1,5-c]quinazolin-5-yl]amino}azepan-2-one], the IC50 in assay [1] (mouse Hepa 1c1c7 cells) stood at 0.517 nM; in assay [2], 7.33e-10 M.

For `COc1ccc(-c2nc3c4cccc(C(C)(C)O)c4nc(N[C@@H]4CCCCNC4=O)n3n2)cc1` [Example 859, (3R)-3-{[7-(2-hydroxypropan-2-yl)-2-(4-methoxyphenyl)[1,2,4]triazolo[1,5-c]quinazolin-5-yl]amino}azepan-2-one], the figures for the IC50 in assay [1] (setting [3]) and in assay [2] (firefly luciferase reporter) were 39.4 nM and 4.11e-09 M, respectively.

Regarding `O=C1NCCCC[C@@H]1Nc1nc2ccccc2c2nc(-c3ccc(Cl)cc3OC(F)(F)F)nn12` [Example 518, (3S)-3-({2-[4-chloro-2-(trifluoromethoxy)phenyl][1,2,4]triazolo[1,5-c]quinazolin-5-yl}amino)azepan-2-one], the IC50 in assay [1] (mouse Hepa 1c1c7 cells) turned out to be 7.94 nM; in assay [2], 4.5e-08 M.

Turning to `COc1ccc(-c2nc3c4cccc(Br)c4nc(N[C@@H]4CCCNC4=O)n3n2)cc1` [Example 223, (3R)-3-{[7-bromo-2-(4-methoxyphenyl)[1,2,4]triazolo[1,5-c]quinazolin-5-yl]amino}piperidin-2-one], the IC50 in assay [1] (mouse Hepa 1c1c7 cells) amounted to 111 nM; in assay [2], 5.32e-08 M.

In the case of `Cn1cc(-c2nc3c4cccc(S(C)(=O)=O)c4nc(N[C@@H]4CNCCNC4=O)n3n2)cn1` [Example 937, (6R)-6-{[7-(methanesulfonyl)-2-(1-methyl-1H-pyrazol-4-yl)[1,2,4]triazolo[1,5-c]quinazolin-5-yl]amino}-1,4-diazepan-5-one], the figures for the IC50 in assay [1] (setting [3]) and in assay [2] (firefly luciferase reporter) were more than 20000 nM and more than 2e-05 M, respectively.

Consider `COc1ccc(-c2nc3c4cccc(C5(C(F)(F)F)CC5)c4nc(N[C@@H]4CCCCNC4=O)n3n2)cc1` [Example 398, (3R)-3-({2-(4-methoxyphenyl)-7-[1-(trifluoromethyl)cyclopropyl][1,2,4]triazolo[1,5-c]quinazolin-5-yl}amino)azepan-2-one], for which the IC50 in assay [1] (mouse Hepa 1c1c7 cells) worked out at 135 nM; in assay [2], 2.24e-08 M.

On to `C[C@@H](Nc1nc2c(Br)cccc2c2nc(-c3cnn(C)c3)nn12)C(=O)N1CC2(CN(C(=O)OC(C)(C)C)C2)C1` [Example 921, tert-butyl 6-{N-[7-bromo-2-(1-methyl-1H-pyrazol-4-yl)[1,2,4]triazolo[1,5-c]quinazolin-5-yl]-D-alanyl}-2,6-diazaspiro[3.3]heptane-2-carboxylate], for which the IC50 in assay [1] (setting [3]) is 98.3 nM; in assay [2] (firefly luciferase reporter) it was 4.24e-08 M.

For `CCSc1cccc2c1nc(N[C@@H]1CNCCNC1=O)n1nc(-c3ccc(OC)cc3)nc21` [Example 939, (6R)-6-{[7-(ethylsulfanyl)-2-(4-methoxyphenyl)[1,2,4]triazolo[1,5-c]quinazolin-5-yl]amino}-1,4-diazepan-5-one], the IC50 in assay [1] (setting [3]) was found to be 22.5 nM; in assay [2] (firefly luciferase reporter), 1.19e-08 M.

For `Cc1cscc1-c1nc2c3ccccc3nc(N[C@@H]3CCCNC3=O)n2n1` [Example 540], the IC50 came out at 6.24 nM in assay [1] (mouse Hepa 1c1c7 cells) and 6.05e-08 M in assay [2].

On to `Cn1cc(-c2nc3c4cccc(Cl)c4nc(N[C@@H]4CNCCNC4=O)n3n2)cn1` [Example 253, (6R)-6-{[7-Chloro-2-(1-methyl-1H-pyrazol-4-yl)[1,2,4]triazolo[1,5-c]quinazolin-5-yl]amino}-1,4-diazepan-5-one], for which the IC50 is 36.8 nM in assay [1] (mouse Hepa 1c1c7 cells) and 2.71e-08 M in assay [2].

Turning to `COc1ccc(-c2nc3c4cc(OC)ccc4nc(N[C@@H]4CCCCNC4=O)n3n2)cc1` [Example 237, (3R)-3-{[9-methoxy-2-(4-methoxyphenyl)[1,2,4]triazolo[1,5-c]quinazolin-5-yl]amino}azepan-2-one], the IC50 amounted to 38.7 nM in assay [1] (mouse Hepa 1c1c7 cells) and 1.33e-08 M in assay [2].

These data come from patent US20230113037A1 (Bayer Aktiengesellschaft, priority 2019, published 2023).
